# From patent US11780845B2 (Relay Therapeutics, Inc., priority 2019, dated 2023)
# Target: FGFR2 (Homo sapiens (Human), UniProt P21802)
# Assay: FGFR2 Biochemical Caliper Assay
# Settings: not given
# Protocol: Compounds of the present invention were also tested in a FGFR2 Biochemical Caliper Assay. Compounds were prepared in 10 mM DMSO solution and serially diluted into 11 concentrations by 3-fold dilution. […] 5 uL of ATP solution (100 uM) was added to start the reaction and the plate was incubated for 90 minutes, then 70 uL of stopping buffer (0.5M EDTA) was added to terminate the reaction. Each well was analyzed using EZ reader.
# Sequence of FGFR2 (P21802 22-821): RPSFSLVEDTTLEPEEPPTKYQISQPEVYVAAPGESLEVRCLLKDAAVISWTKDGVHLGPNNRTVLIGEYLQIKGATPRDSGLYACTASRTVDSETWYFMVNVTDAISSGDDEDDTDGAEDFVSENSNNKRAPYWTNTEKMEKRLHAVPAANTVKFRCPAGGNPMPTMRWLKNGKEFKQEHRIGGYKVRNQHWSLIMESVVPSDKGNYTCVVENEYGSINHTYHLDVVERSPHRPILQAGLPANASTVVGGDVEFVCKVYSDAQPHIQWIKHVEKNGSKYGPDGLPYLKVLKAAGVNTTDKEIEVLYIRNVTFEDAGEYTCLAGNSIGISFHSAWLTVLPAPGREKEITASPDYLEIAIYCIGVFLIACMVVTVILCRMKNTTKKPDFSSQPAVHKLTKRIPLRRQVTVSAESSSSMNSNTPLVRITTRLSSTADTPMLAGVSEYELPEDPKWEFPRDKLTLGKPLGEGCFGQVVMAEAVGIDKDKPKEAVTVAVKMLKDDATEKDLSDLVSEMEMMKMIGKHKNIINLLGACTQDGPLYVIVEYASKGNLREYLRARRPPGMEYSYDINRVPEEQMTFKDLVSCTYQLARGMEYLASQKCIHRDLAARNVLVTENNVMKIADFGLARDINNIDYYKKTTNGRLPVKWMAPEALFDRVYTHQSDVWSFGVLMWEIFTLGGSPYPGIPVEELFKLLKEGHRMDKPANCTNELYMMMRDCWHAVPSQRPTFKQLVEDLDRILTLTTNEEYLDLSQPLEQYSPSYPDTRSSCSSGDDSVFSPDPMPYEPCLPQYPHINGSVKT
row,IC50 [nM],Compound
1,1000 to 100000,"C=C(C)C(=O)Nc1ccc(-c2c(C3=CC[C@H](Oc4cccc(C)n4)CC3)c3c(N)ncnc3n2C)cc1 (single isomer, unassigned) [Example 452]"
2,< 100,C=CC(=O)N1CC=C(c2c(-c3ccc(Oc4cccc(C)n4)cc3)c3c(N)ncnc3n2C)C1 [Example 666]
3,< 100,C=CC(=O)Nc1ccc(-c2c(-c3ccc(OC4CCOC4)c(C)c3)c3c(N)ncnc3n2C)cc1 (centres unmarked) [Example 174]
4,1000 to 100000,C=CC(=O)N1CCC(c2c(-c3ccc(Oc4ccc(Cl)c(C)n4)cc3)c3c(N)ncnc3n2C)C1 (centres unmarked) [Example 745]
5,< 100,C=C(C)C(=O)Nc1ccc(-c2c(-c3ccc(Oc4ncc(F)cn4)cc3)c3c(N)ncnc3n2C)cc1 [Example 428]
6,< 100,C=CC(=O)Nc1ccc(-c2[nH]c3ncnc(N)c3c2-c2ccc(Oc3cccc(C)n3)cc2)cc1 [Example 769]
7,< 100,C=C(C)C(=O)Nc1ccc(-c2c(-c3ccc(C(=O)NCC4CCCO4)cc3)c3c(N)ncnc3n2C)cc1 (centres unmarked) [Example 376]
8,< 100,C=CC(=O)N1CCC(n2cc(-c3c(-c4ccc(Oc5cccc(C)n5)c(OC)c4)c4c(N)ncnc4n3C)cn2)CC1 [Example 641]
9,250 to 1000,C=C(C)C(=O)Nc1ccc(-c2c(-c3ccc(C(=O)N4CCCC4)c(OC)c3)c3c(N)ncnc3n2C)cc1 [Example 156]
10,1000 to 100000,C=C(C)C(=O)Nc1ccc(-c2c(-c3ccc(C(=O)N4CCC[C@H](OC)C4)cc3)c3c(N)ncnc3n2C)cc1 [Example 353]
11,250 to 1000,C=C(C)C(=O)Nc1ccc(-c2c(-c3ccc(C(=O)N4CCC(O)C4)cc3)c3c(N)ncnc3n2C)cc1 (centres unmarked) [Example 157]
12,< 100,C=C(C)C(=O)Nc1ccc(-c2c(-c3ccc(C(=O)N4CCCC[C@@H]4C)cc3)c3c(N)ncnc3n2C)cc1 [Example 292]
13,1000 to 100000,C=CC(=O)N1CCC(c2c(-c3ccc(C(=O)N4CCOCC4)cc3)c3c(N)ncnc3n2C)C1 (centres unmarked) [Example 722]
14,< 100,C=CC(=O)N1CCC(c2c(-c3ccc(OC4CCC4)cc3)c3c(N)ncnc3n2C)C1 (centres unmarked) [Example 758]
15,< 100,C=C(C)C(=O)Nc1ccc(-c2c(-c3ccc(C(=O)N(C)CC4(C#N)CC4)cc3)c3c(N)ncnc3n2C)c(F)c1 [Example 465]
16,100 to 250,C=C(C)C(=O)Nc1ccc(-c2c(-c3ccc(C(=O)c4nccc(C)n4)cc3C)c3c(N)ncnc3n2C)cc1 [Example 471]
17,< 100,C=CC(=O)Nc1ccc(-c2c(C3=CCC(C(=O)N(C)C)CC3)c3c(N)ncnc3n2C)cc1 (centres unmarked) [Example 296]
18,< 100,C=CC(=O)N(C)C1CC(n2cc(-c3c(-c4ccc(Oc5cccc(C)n5)cc4)c4c(N)ncnc4n3C)cn2)C1 (centres unmarked) [Example 628]
19,100 to 250,C=C(C)C(=O)Nc1ccc(-c2c(-c3ccc(Oc4nccc(C)n4)c(OC)c3)c3c(N)ncnc3n2C)cc1 [Example 446]
20,1000 to 100000,C=C(C)C(=O)Nc1ccc(-c2c(-c3ccc(CN4CCOCC4=O)cc3)c3c(N)ncnc3n2C)cc1 [Example 188]
21,250 to 1000,C=CC(=O)N1CCC(c2c(-c3cnn(C4CCN(C)CC4)c3)c3c(N)ncnc3n2C)C1 (centres unmarked) [Example 743]
22,250 to 1000,"C=CC(=O)N1CC[C@H](c2c(-c3ccc(Oc4ncccn4)cc3)c3c(N)ncnc3n2CC)C1 (single isomer, unassigned) [Example 710]"
23,< 100,C=C(C)C(=O)Nc1ccc(-c2c(-c3ccc(C(=O)NC4CCCC4)cc3)c3c(N)ncnc3n2C)cc1 [Example 212]
24,1000 to 100000,C=CC(=O)N1CCC(c2c(-c3ccc(Oc4ccc(C)nc4)c(OC)c3)c3c(N)ncnc3n2C)C1 (centres unmarked) [Example 685]
25,1000 to 100000,C=C(C)C(=O)Nc1ccc(-c2c(C3=C(F)CC(C(=O)N4CCCC4)CC3)c3c(N)ncnc3n2C)cc1 (centres unmarked) [Example 601]
26,< 100,C=C(C)C(=O)Nc1ccc(-c2c(-c3ccc(C(=O)N4CCCC4)cc3)c3c(N)ncnc3n2C)c(C)c1 [Example 406]
27,< 100,C=C(C)C(=O)Nc1ccc(-c2c(-c3ccc(Oc4nccc(C)n4)cc3)c3c(N)ncnc3n2C)c(CC)c1 [Example 521]
28,< 100,C=C(C)C(=O)Nc1ccc(-c2c(-c3ccc(C(=O)N4CCCC5CC54)cc3)c3c(N)ncnc3n2C)cc1 (centres unmarked) [Example 239]

# Test system: SNU16 cells
# Assay: SNU16 Cancer Cell Line Proliferation Assay
# Type: cell-based
# Settings: Homo sapiens; SNU-16 cells
# Outline: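 Proliferation read-out: CellTiter Glo chemiluminescence after 96 h compound exposure. Test compounds, serially diluted 3-fold over 11 points from a 10 mM DMSO stock, were added to SNU16 cells plated 24 h earlier at 37 degrees.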
row,IC50 [nM],Compound
1,250 to 1000,"C=C(C)C(=O)Nc1ccc(-c2c(C3=CC[C@H](Oc4cccc(C)n4)CC3)c3c(N)ncnc3n2C)cc1 (single isomer, unassigned) [Example 452]"
2,≤ 100,C=CC(=O)N1CC=C(c2c(-c3ccc(Oc4cccc(C)n4)cc3)c3c(N)ncnc3n2C)C1 [Example 666]
3,≤ 100,C=CC(=O)Nc1ccc(-c2c(-c3ccc(OC4CCOC4)c(C)c3)c3c(N)ncnc3n2C)cc1 (centres unmarked) [Example 174]
4,1000 to 100000,C=CC(=O)N1CCC(c2c(-c3ccc(Oc4ccc(Cl)c(C)n4)cc3)c3c(N)ncnc3n2C)C1 (centres unmarked) [Example 745]
5,≤ 100,C=C(C)C(=O)Nc1ccc(-c2c(-c3ccc(Oc4ncc(F)cn4)cc3)c3c(N)ncnc3n2C)cc1 [Example 428]
6,≤ 100,C=CC(=O)Nc1ccc(-c2[nH]c3ncnc(N)c3c2-c2ccc(Oc3cccc(C)n3)cc2)cc1 [Example 769]
7,≤ 100,C=C(C)C(=O)Nc1ccc(-c2c(-c3ccc(C(=O)NCC4CCCO4)cc3)c3c(N)ncnc3n2C)cc1 (centres unmarked) [Example 376]
8,≤ 100,C=CC(=O)N1CCC(n2cc(-c3c(-c4ccc(Oc5cccc(C)n5)c(OC)c4)c4c(N)ncnc4n3C)cn2)CC1 [Example 641]
9,100 to 250,C=C(C)C(=O)Nc1ccc(-c2c(-c3ccc(C(=O)N4CCCC4)c(OC)c3)c3c(N)ncnc3n2C)cc1 [Example 156]
10,250 to 1000,C=C(C)C(=O)Nc1ccc(-c2c(-c3ccc(C(=O)N4CCC[C@H](OC)C4)cc3)c3c(N)ncnc3n2C)cc1 [Example 353]
11,250 to 1000,C=C(C)C(=O)Nc1ccc(-c2c(-c3ccc(C(=O)N4CCC(O)C4)cc3)c3c(N)ncnc3n2C)cc1 (centres unmarked) [Example 157]
12,≤ 100,C=C(C)C(=O)Nc1ccc(-c2c(-c3ccc(C(=O)N4CCCC[C@@H]4C)cc3)c3c(N)ncnc3n2C)cc1 [Example 292]
13,1000 to 100000,C=CC(=O)N1CCC(c2c(-c3ccc(C(=O)N4CCOCC4)cc3)c3c(N)ncnc3n2C)C1 (centres unmarked) [Example 722]
14,≤ 100,C=CC(=O)N1CCC(c2c(-c3ccc(OC4CCC4)cc3)c3c(N)ncnc3n2C)C1 (centres unmarked) [Example 758]
15,≤ 100,C=C(C)C(=O)Nc1ccc(-c2c(-c3ccc(C(=O)N(C)CC4(C#N)CC4)cc3)c3c(N)ncnc3n2C)c(F)c1 [Example 465]
16,100 to 250,C=C(C)C(=O)Nc1ccc(-c2c(-c3ccc(C(=O)c4nccc(C)n4)cc3C)c3c(N)ncnc3n2C)cc1 [Example 471]
17,≤ 100,C=CC(=O)Nc1ccc(-c2c(C3=CCC(C(=O)N(C)C)CC3)c3c(N)ncnc3n2C)cc1 (centres unmarked) [Example 296]
18,≤ 100,C=CC(=O)N(C)C1CC(n2cc(-c3c(-c4ccc(Oc5cccc(C)n5)cc4)c4c(N)ncnc4n3C)cn2)C1 (centres unmarked) [Example 628]
19,≤ 100,C=C(C)C(=O)Nc1ccc(-c2c(-c3ccc(Oc4nccc(C)n4)c(OC)c3)c3c(N)ncnc3n2C)cc1 [Example 446]
20,250 to 1000,C=C(C)C(=O)Nc1ccc(-c2c(-c3ccc(CN4CCOCC4=O)cc3)c3c(N)ncnc3n2C)cc1 [Example 188]
21,1000 to 100000,C=CC(=O)N1CCC(c2c(-c3cnn(C4CCN(C)CC4)c3)c3c(N)ncnc3n2C)C1 (centres unmarked) [Example 743]
22,100 to 250,"C=CC(=O)N1CC[C@H](c2c(-c3ccc(Oc4ncccn4)cc3)c3c(N)ncnc3n2CC)C1 (single isomer, unassigned) [Example 710]"
23,≤ 100,C=C(C)C(=O)Nc1ccc(-c2c(-c3ccc(C(=O)NC4CCCC4)cc3)c3c(N)ncnc3n2C)cc1 [Example 212]
24,1000 to 100000,C=CC(=O)N1CCC(c2c(-c3ccc(Oc4ccc(C)nc4)c(OC)c3)c3c(N)ncnc3n2C)C1 (centres unmarked) [Example 685]
25,250 to 1000,C=C(C)C(=O)Nc1ccc(-c2c(C3=C(F)CC(C(=O)N4CCCC4)CC3)c3c(N)ncnc3n2C)cc1 (centres unmarked) [Example 601]
26,≤ 100,C=C(C)C(=O)Nc1ccc(-c2c(-c3ccc(C(=O)N4CCCC4)cc3)c3c(N)ncnc3n2C)c(C)c1 [Example 406]
27,≤ 100,C=C(C)C(=O)Nc1ccc(-c2c(-c3ccc(C(=O)N4CCCC5CC54)cc3)c3c(N)ncnc3n2C)cc1 (centres unmarked) [Example 239]

# Same assay, conditions: SNU-16 cells
row,IC50 [nM],Compound
1,≤ 100,C=C(C)C(=O)Nc1ccc(-c2c(-c3ccc(Oc4nccc(C)n4)cc3)c3c(N)ncnc3n2C)c(CC)c1 [Example 521]
